# Reference: patent publication US7981896B2 (Athersys, Inc., priority 2006, dated 2011)
# Molecular target: T1, human histamine H3 receptor (Homo sapiens, UniProt Q9Y5N1)
# T1 construct: endogenous in cells; host or cells: HT1080-Gqαi5 RAGE clone (RAGE-H3), human fibrosarcoma line; integrated RAGE vector pFG8-HH3 supplies exon 1, the cell's own gene supplies the other exons
# Assay: Competition radioligand binding assay with [125I]iodoproxyfan on membranes of RAGE-H3 (HT1080-Gqαi5) cells expressing human H3 receptor
# Details: ~0.15 nM [125I]iodoproxyfan, 1.5 hrs at room temperature, head does not name the quantity (apparent Ki by Cheng-Prussof)
# Description: Representative compounds of the present invention that were prepared by the procedures of Examples 1-83 were evaluated in binding assays against cells expressing human H3 receptor by the following procedure.
# [^125I]iodoproxyfan (2000 Ci/mmol) was obtained from Amersham Bioscience (Piscataway, N.J.). All other chemicals were either from Sigma-Aldrich (St. Louis, Mo.) or Tocris Cookson Inc. (Ellisville, Mo.).
# The human histamine H3 receptor was stably expressed in HT1080 cells containing the chimeric G-protein, Gq[…]i5 (Coward et al., Anal Biochem 1999; 270:242-8). HT1080-Gqαi5 cells were grown in alpha-modified MEM containing 10% fetal bovine serum and 7 μg/ml blasticidin at 37° C. in 5% CO2/95% atmosphere. Cells (4.8×10^9) were irradiated with 50 rads from a ^137Cs source and the pFG8-HH3 RAGE (Random Activation of Gene Expression; see Harrington et al., Nature Biotechnology. 2001; 19:440-45) vector was subsequently integrated into the cells via electroporation (250V, 600 μF, 50Ω). The RAGE vector pFG8-HH3 contained cDNA sequence coding for the first exon (83 amino acids) of human H3 receptor. After electroporation, cells were plated in T75 flasks and grown in alpha-modified MEM. The culture medium was replaced 48 hrs after electroporation with alpha-modified MEM, 10% fetal bovine serum, 500 μg/ml hygromycin B and 3 μg/ml puromycin. Medium was replaced every four days during cell expansion. To identify RAGE activated cells expressing the H3 receptor, pools of approximately 10,000 colonies (5×10^7-1.5×10^8 cells total) were screened by PCR for the desired gene product (using primers specific to the RAGE vector and exon 2 of the H3 receptor). […] Positive 100 cells/well pools were identified by PCR, confirmed by sequencing, and subsequently subcloned to 0.8 cells/well. Once clones expressing the H3 receptor were identified by PCR analysis, assays (FLIPR or radioligand binding) were performed to confirm that the activated gene produced functional protein. The protein expression in the initial clones obtained from the RAGE library was increased by growth in the presence of methotrexate. Since the integrated RAGE vector contains the DHFR gene, such treatment selects for cells that have amplified the genetic locus containing the RAGE insert. Subclones obtained after methotrexate amplification were tested for functional activity in FLIPR assays to identify the clone that was most suitable for HTS. The final HT1080-Gqαi5 RAGE clone (RAGE-H3) expressing the human histamine H3 receptor was grown in alpha-modified MEM containing 10% fetal bovine serum, 3 μg/ml puromycin, 500 μg/ml hygromycin B, 3.2 μM methotrexate at 37° C. in 5% CO2/95% atmosphere.
# RAGE-H3 cells (10^9) were washed twice with cold PBS, scraped off the plates, and centrifuged at 1000×g for 5 minutes. Cells were resuspended in ice-cold 10 mM Tris HCl, pH 7.4, containing 5 mM EDTA and protease inhibitor cocktail tablets (Roche Molecular Biochemicals). After incubating on ice for 10 min, the cells were homogenized with a dounce homogenizer or a polytron tissue grinder, and centrifuged at 1000×g for 10 min at 4° C. The resulting supernatant was centrifuged at 32,000×g for 30 min at 4° C. The membrane pellets were resuspended in 50 mM Tris HCl, pH 7.4, and stored at −80° C. until use. Protein concentration was determined by the Bradford method (Bio-Rad Laboratories, CA).
# Binding assays were carried out in 96-well polypropylene plates in 50 mM Tris HCl, pH 7.4, containing 1 mM EDTA. Reaction mixtures contained 100 μl of membrane suspension, 50 μl of 4% DMSO, and 50 μl of increasing amounts of [^125I]iodoproxyfan (final concentration 0.0005-1.8 nM for human H3 receptor saturation binding assay). Nonspecific binding was defined by adding 10 μM clobenpropit to the reaction mixtures. […]
# T1 sequence (Q9Y5N1 whole entry): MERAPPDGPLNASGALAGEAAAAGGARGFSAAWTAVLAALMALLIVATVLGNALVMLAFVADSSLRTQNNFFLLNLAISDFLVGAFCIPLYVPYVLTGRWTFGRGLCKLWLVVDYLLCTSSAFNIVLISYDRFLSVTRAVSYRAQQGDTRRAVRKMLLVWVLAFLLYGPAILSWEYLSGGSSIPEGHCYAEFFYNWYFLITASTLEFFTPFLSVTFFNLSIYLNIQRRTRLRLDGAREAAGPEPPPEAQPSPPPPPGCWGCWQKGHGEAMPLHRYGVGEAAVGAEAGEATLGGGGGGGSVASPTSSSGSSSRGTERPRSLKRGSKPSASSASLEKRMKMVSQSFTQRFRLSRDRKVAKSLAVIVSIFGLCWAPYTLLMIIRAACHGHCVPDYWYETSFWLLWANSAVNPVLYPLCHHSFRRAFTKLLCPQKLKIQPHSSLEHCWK
row,SMILES,Ki [µM]
1,"Cc1nn(-c2ccc(OCCCN3CCCC3)cc2)c(C)c1-c1ccccc1 [Example 39, 4-Phenyl-3,5-dimethyl-1-[4-(3-pyrrolidin-1-ylpropoxy)phenyl]-1H-pyrazole]",< 0.01
2,"Cc1cc(-c2ccccc2)nn1-c1ccc(OCCCN2CCCC2)cc1 [Example 40, 5-Methyl-3-phenyl-1-[4-(3-pyrrolidin-1-ylpropoxy)phenyl]-1H-pyrazole]",< 0.01
3,Cc1cc(-c2ccccc2)n(-c2ccc(OCCCN3CCCC3)cc2)n1 [Example 41],< 0.01
4,"CC(C)(C)c1cc(-c2ccccc2)n(-c2ccc(OCCCN3CCCC3)cc2)n1 [Example 42, 3-tert-Butyl-5-phenyl-1-[4-(3-pyrrolidin-1-ylpropoxy)phenyl]-1H-pyrazole]",< 0.01
5,"FC(F)(F)c1cc(-c2ccccc2)n(-c2ccc(OCCCN3CCCC3)cc2)n1 [Example 50, 5-Phenyl-1-[4-(3-pyrrolidin-1-yl-propoxy)-phenyl]-3-trifluoromethyl-1H-pyrazole]",< 0.01
6,"C[C@@H]1CCCN1CCCOc1ccc(-n2nc(C(F)(F)F)cc2-c2ccccc2)cc1 [Example 51, 1-{4-[3-(2-(R)-Methyl-pyrrolidin-1-yl)-propoxy]-phenyl}-5-phenyl-3-trifluoromethyl-1H-pyrazole]",< 0.1
7,"CN(C)C1CCN(CCCOc2ccc(-n3nc(C(F)(F)F)cc3-c3ccccc3)cc2)C1 (stereo not drawn) [Example 52, Dimethyl-(1-{3-[4-(5-phenyl-3-trifluoromethyl-pyrazol-1-yl)-phenoxy]-propyl}-pyrrolidin-3-yl)-amine]",< 10
8,"FC(F)(F)c1cc(-c2ccccc2)n(-c2ccc(OCCCN3CCOCC3)cc2)n1 [Example 53, 4-{3-[4-(5-Phenyl-3-trifluoromethyl-pyrazol-1-yl)-phenoxy]-propyl}-morpholine]",< 1
9,"FC(F)(F)c1cc(-c2ccccc2)n(-c2ccc(OCCCN3CCCCC3)cc2)n1 [Example 54, 1-{3-[4-(5-Phenyl-3-trifluoromethyl-pyrazol-1-yl)-phenoxy]-propyl}-piperidine]",< 0.1
10,"Cc1nn(-c2ccc(OCCCN3CCCC3)cc2)c2c1CCCC2 [Example 55, 3-Methyl-1-[4-(3-pyrrolidin-1-yl-propoxy)-phenyl]-4,5,6,7-tetrahydro-1H-indazole]",< 0.01
11,"Cc1c2c(nn1-c1ccc(OCCCN3CCCC3)cc1)CCCC2 [Example 56, 3-Methyl-2-[4-(3-pyrrolidin-1-yl-propoxy)-phenyl]-4,5,6,7-tetrahydro-2H-indazole]",< 0.001
12,"Cc1nn(-c2ccc(OCCCN3CCCC3)cc2)c2c1CCC2 [Example 57, 3-Methyl-1-[4-(3-pyrrolidin-1-yl-propoxy)-phenyl]-1,4,5,6-tetrahydro-cyclopentapyrazole]",< 0.01
13,"Cc1c2c(nn1-c1ccc(OCCCN3CCCC3)cc1)CCC2 [Example 58, 3-Methyl-2-[4-(3-pyrrolidin-1-yl-propoxy)-phenyl]-2,4,5,6-tetrahydro-cyclopentapyrazole]",< 0.1
14,"Cc1c2c(nn1-c1ccc(OCCCN3CCCCC3)cc1)CCC2 [Example 60, 3-Methyl-2-[4-(3-piperidin-1-yl-propoxy)-phenyl]-2,4,5,6-tetrahydro-cyclopentapyrazole]",< 0.01
15,"Cc1cc(OCCCN2CCCC2)ccc1-n1nc(C(C)C)cc1C(C)C [Example 61, 3,5-Diisopropyl-1-[2-methyl-4-(3-pyrrolidin-1-ylpropoxy)phenyl]-1H-pyrazole]",< 0.01
16,"Cc1cc(OCCCN2CCCCC2)ccc1-n1nc(C(C)C)cc1C(C)C [Example 62, 3,5-Diisopropyl-1-[2-methyl-4-(3-piperidin-1-ylpropoxy)phenyl]-1H-pyrazole]",< 0.01
17,"FC(F)(F)c1cc(-c2cc3ccccc3o2)n(-c2ccc(OCCCN3CCCC3)cc2)n1 [Example 63, 5-Benzofuran-2-yl-1-[4-(3-pyrrolidin-1-ylpropoxy)phenyl]-3-trifluoromethyl-1H-pyrazole]",< 0.1
18,"Cc1nn(-c2ccc(OCCCN3CCCC3)cc2)c2c1sc1ccccc12 [Example 64, 3-Methyl-1-[4-(3-pyrrolidin-1-yl-propoxy)-phenyl]-1H-benzo[4,5]thieno[3,2-c]pyrazole]",< 0.01
19,"Cc1nn(-c2ccc(OCCCN3CCCC3C)cc2)c2c1sc1ccccc12 (stereo not drawn) [Example 65, 3-Methyl-1-{4-[3-(2-methyl-pyrrolidin-1-yl)-propoxy]-phenyl}-1H-benzo[4,5]thieno[3,2-c]pyrazole]",< 0.01
20,"CC1CCCN1CCCOc1ccc(-n2nc(C(F)(F)F)c3oc4ccccc4c32)cc1 (stereo not drawn) [Example 67, 3-{4-[3-(2-Methyl-pyrrolidin-1-yl)-propoxy]-phenyl}-1-trifluoromethyl-3H-8-oxa-2,3-diaza-cyclopenta[a]indene]",< 0.1
21,"CN(C)C1CCN(CCCOc2ccc(-n3nc(C(F)(F)F)c4oc5ccccc5c43)cc2)C1 (stereo not drawn) [Example 68, Dimethyl-(1-{3-[4-(1-trifluoromethyl-8-oxa-2,3-diaza-cyclopenta[a]inden-3-yl)-phenoxy]-propyl}-pyrrolidin-3-yl)-amine]",< 1
22,"Cc1cc(C(=O)NC2CCCCC2)n(-c2ccc(OCCCN3CCCC3)cc2)n1 [Example 73, 5-Methyl-2-[4-(3-pyrrolidin-1-yl-propoxy)-phenyl]-2H-pyrazole-3-carboxylic acid cyclohexylamide]",< 0.001
23,"Cc1cc(C(=O)NC2CCCCC2)n(-c2ccc(OCCCN3CCC[C@H]3C)cc2)n1 [Example 74, 5-Methyl-2-{4-[3-(2R-methylpyrrolidin-1-yl)propoxy]phenyl}-2H-pyrazole-3-carboxylic acid cyclohexylamide]",< 0.001
24,"Cc1cc(C(=O)NC2CCCCC2)n(-c2ccc(OCCCN3CCCCC3)cc2)n1 [Example 75, 5-Methyl-2-[4-(3-piperidin-1-ylpropoxy)phenyl]-2H-pyrazole-3-carboxylic acid cyclohexylamide]",< 0.001
25,"Cc1cc(C(=O)NC2CCCCC2)n(-c2ccc(OCCCN3CCOCC3)cc2)n1 [Example 76, 5-Methyl-2-[4-(3-morpholin-4-ylpropoxy)phenyl]-2H-pyrazole-3-carboxylic acid cyclohexylamide]",< 0.01
26,"Cc1cc(C(=O)NC2CCCCC2)n(-c2ccc(OCCC3CCCN3C)cc2)n1 (stereo not drawn) [Example 77, 5-Methyl-2-{4-[2-(1-methylpyrrolidin-2-yl)ethoxy]phenyl}-2H-pyrazole-3-carboxylic acid cyclohexylamide]",< 1
27,"Cc1cc(C(=O)N2CCCC2)n(-c2ccc(OCCCN3CCCC3)cc2)n1 [Example 78, {5-Methyl-2-[4-(3-pyrrolidin-1-ylpropoxy)phenyl]-2H-pyrazol-3-yl}pyrrolidin-1-ylmethanone]",< 0.01
28,"Cc1cc(C(=O)NCC2CCCCC2)n(-c2ccc(OCCCN3CCCC3)cc2)n1 [Example 79, 5-Methyl-2-[4-(3-pyrrolidin-1-ylpropoxy)phenyl]-2H-pyrazole-3-carboxylic acid cyclohexylmethylamide]",< 0.001
29,"Cc1cc(C(=O)NC2CCC2)n(-c2ccc(OCCCN3CCCC3)cc2)n1 [Example 80, 5-Methyl-2-[4-(3-pyrrolidin-1-ylpropoxy)phenyl]-2H-pyrazole-3-carboxylic acid cyclobutylamide]",< 0.001
30,"Cc1cc(C(=O)Nc2ccccc2)n(-c2ccc(OCCCN3CCCC3)cc2)n1 [Example 81, 5-Methyl-2-[4-(3-pyrrolidin-1-ylpropoxy)phenyl]-2H-pyrazole-3-carboxylic acid phenylamide]",< 0.001
